Results reported in patent US20160158200A1, “Combinations of Hepatitis C Virus Inhibitors” (priority 2013, published 2016).

What was measured:
[1] = system: HCV genotype 1a Y93H variant with tyrosine 93 changed to histidine in the NS5A protein; experiment: microbe, parasite or virus in culture; type: cell-based; conditions: genotype 1a Y93H replicon; test compound titrated with compound N47 fixed at 200 nM versus singly
Procedure: Combinations can be examined for synergistic activity using a variety of putative NS5A-targeting compounds and a variety of test compounds. […] The test compound can be chosen from compounds exemplified below, which were prepared by methods known in the art, or from others disclosed in the literature.
Similarly, BMS-790052 can be tested singly and in combination with a fixed amount of compound N47 in the HCV replicon cell based assay consisting of the genotype 1a Y93H variant with tyrosine 93 changed to histidine in the NS5A protein.

[2] = system: HCV genotype 1a L31V variant with leucine 31 changed to valine in the NS5A protein; experiment: microbe, parasite or virus in culture; type: cell-based; conditions: genotype 1a L31V replicon; test compound titrated with compound N47 fixed at 200 nM versus singly

| Compound | Fold-Synergistic G-1a (Y93H) [1] [fold] | Fold-Synergistic G-1a (L31V) [2] [fold] |
| --- | --- | --- |
| O=C(Nc1ccc(C#Cc2ccc(NC(=O)[C@@H]3CCCN3C(=O)CC3CC3)cc2)cc1)[C@@H]1CCCN1C(=O)CC1CC1 | <10 | <10 |
| O=C(Cc1ccccc1)N1CCC[C@H]1c1nc2cc(C#Cc3ccc4nc([C@@H]5CCCN5C(=O)Cc5ccccc5)[nH]c4c3)ccc2[nH]1 | <10 | <10 |
| COC(=O)N[C@H](C(=O)N1C2CC2CC[C@H]1c1ncc(-c2ccc(-c3ccc(-c4cnc([C@@H]5CCC6CC6N5C(=O)[C@@H](NC(=O)OC)C(C)C)[nH]4)cc3)cc2)[nH]1)C(C)C (some centres unmarked) [drawing 2291] | >100 | >100 |
| COC(=O)N[C@H](C(=O)N1CCOC[C@H]1c1ncc(-c2ccc(-c3ccc(-c4cnc([C@@H]5COCCN5C(=O)[C@@H](NC(=O)OC)C(C)C)[nH]4)cc3)cc2)[nH]1)C(C)C | >100 | >100 |
| COC(=O)N[C@H](C(=O)N(C)[C@@H](C)c1ncc(-c2ccc(C#Cc3ccc(-c4cnc([C@H](C)N(C)C(=O)[C@@H](NC(=O)OC)C(C)C)[nH]4)cc3)cc2)[nH]1)C(C)C | <10 | >10 |
| COc1cccc2c(C(=O)N3CCC[C@H]3c3nc4ccc(-c5cnc(-c6cccc(O)c6)o5)cc4[nH]3)nc(Cl)cc12 | <10 | <10 |
| CN(C)[C@@H](C(=O)N1CCC[C@H]1c1nc(-c2ccc(COCc3ccc(-c4c[nH]c([C@@H]5CCCN5C(=O)[C@@H](c5ccccc5)N(C)C)n4)cc3)cc2)c[nH]1)c1ccccc1 | <10 | <10 |
| CC[C@H]1CC[C@@H](c2ncc(-c3ccc(-c4ccc(-c5cnc([C@@H]6CC[C@H](CC)N6C(=O)[C@@H](NC(=O)OC)C(C)C)[nH]5)cc4)cc3)[nH]2)N1C(=O)[C@@H](NC(=O)OC)C(C)C | >100 | >100 |
| COC(=O)N[C@H](C(=O)N1CCCC[C@H]1c1nc(-c2ccc(-c3ccc4cc(-c5c[nH]c([C@@H]6CCCCN6C(=O)[C@@H](NC(=O)OC)C(C)C)n5)ccc4c3)cc2)c[nH]1)C(C)C | <10 | >10 |
| CC(C)[C@H](NC(=O)OCc1ccccc1)C(=O)Nc1ccc(-c2cnc(-c3ccc(NC(=O)[C@@H](NC(=O)OCc4ccccc4)C(C)C)cc3)o2)cc1 | <10 | <10 |
| C[C@H](NC(=O)[C@@H](O)c1ccccc1)C(=O)Nc1ccc(-c2cnc(-c3ccc(NC(=O)[C@H](C)NC(=O)[C@@H](O)c4ccccc4)cc3)o2)cc1 | <10 | <10 |
| COC(=O)N[C@H](C(=O)N1CCC[C@H]1c1ncc(-c2cccc(C#Cc3cccc(-c4cnc([C@@H]5CCCN5C(=O)[C@@H](NC(=O)OC)C(C)C)[nH]4)c3)c2)[nH]1)C(C)C | >10 | >10 |
| COC(=O)N[C@H](C(=O)N1CCC[C@H]1c1nc2ccc(C#CC#Cc3ccc4nc([C@@H]5CCCN5C(=O)[C@@H](NC(=O)OC)C(C)C)[nH]c4c3)cc2[nH]1)C(C)C | >10 | >100 |
| COC(=O)N[C@H](C(=O)N1[C@@H]2C[C@@H]2C[C@H]1c1ncc(C#Cc2ccc3cc(-c4cnc([C@@H]5C[C@H]6C[C@H]6N5C(=O)[C@@H](NC(=O)OC)C(C)C)[nH]4)ccc3c2)[nH]1)C(C)C | >100 | >100 |
| Cc1nc2ccc(-c3cnc(-c4ccc5nc([C@@H]6CCCN6C(=O)[C@@H](c6ccccc6)N(C)C)[nH]c5c4)o3)cc2[nH]1 | <10 | <10 |
| COC(=O)N[C@H](C(=O)N1[C@@H]2CCC[C@@H]2C[C@H]1c1nc(-c2ccc(-c3ccc(-c4c[nH]c([C@@H]5C[C@H]6CCC[C@H]6N5C(=O)[C@@H](NC(=O)OC)C(C)C)n4)cc3)cc2)c[nH]1)C(C)C | >100 | >100 |
| COC(=O)N[C@H](C(=O)N1[C@@H]2C[C@@H]2C[C@H]1c1nc2cc(-c3ccc(Oc4cccc5[nH]c([C@@H]6C[C@H]7C[C@H]7N6C(=O)[C@@H](NC(=O)OC)C(C)C)nc45)cc3)ccc2[nH]1)C(C)C | >100 | >10 |

| Compound | Fold-Synergistic G-1a (Y93H) [1] [fold] | Fold-Synergistic G-1a (L31V) [2] [fold] |
| --- | --- | --- |
| COC(=O)N[C@H](C(=O)N1CCn2c(-c3ccc(-c4ccc(-c5cnc6n5CCN(C(=O)[C@@H](NC(=O)OC)C(C)C)C6)cc4)cc3)cnc2C1)C(C)C | <10 | <10 |
| COC(=O)N[C@H](C(=O)N1[C@@H]2C[C@@H]2C[C@H]1c1ncc(-c2cccc(-c3ccc4cc(-c5cnc([C@H]6C[C@@H]7C[C@@H]7N6C(=O)[C@@H](NC(=O)OC)C(C)C)[nH]5)ccc4c3)c2)[nH]1)C(C)C | >10 | <10 |
| COC(=O)N[C@@H](C(=O)N1CCC[C@H]1c1nc2ccc(-c3ncc(-c4ccc(N5CCOCC5)cc4)o3)cc2[nH]1)c1ccccc1 | <10 | <10 |
| COC(=O)N[C@H](C(=O)N1[C@H](C)CC[C@H]1c1ncc(-c2ccc(-c3ccc(-c4cnc([C@@H]5CC[C@@H](C)N5C(=O)[C@@H](NC(=O)OC)C(C)C)[nH]4)cc3)cc2)[nH]1)C(C)C | >100 | >100 |
| COC(=O)N[C@H](C(=O)N1CCC[C@H]1c1nc(-c2ccc(C#Cc3ccc(-c4ccc(-c5c[nH]c([C@@H]6CCCN6C(=O)[C@@H](NC(=O)OC)C(C)C)n5)cc4)cc3)cc2)c[nH]1)C(C)C | <10 | <10 |
| COC(=O)N[C@H](C(=O)N1CC(F)(F)C[C@H]1c1nc(-c2ccc(-c3ccc(-c4c[nH]c([C@@H]5CC(F)(F)CN5C(=O)[C@@H](NC(=O)OC)C(C)C)n4)cc3)cc2)c[nH]1)C(C)C | >100 | >100 |
| COC(=O)N[C@H](C(=O)N1CCC[C@H]1c1ncc(-c2ccc(-c3ccc4cc(-c5cnc([C@@H]6CCCN6C(=O)[C@@H](NC(=O)OC)C6CCOCC6)[nH]5)ccc4c3)cc2)[nH]1)C1CCOCC1 | >10 | <10 |
| COC(=O)N[C@H](C(=O)N1CCC[C@H]1c1nc2cc(-c3ccc4cc(-c5ccc6[nH]c([C@@H]7CCCN7C(=O)[C@@H](NC(=O)OC)C(C)C)nc6c5)ccc4c3)ccc2[nH]1)C(C)C | >10 | >10 |
| COC(=O)NC(C(=O)N1[C@@H](C)CC[C@H]1c1nc2ccc3cc(C#CC#Cc4ccc5c(ccc6nc([C@@H]7CC[C@H](C)N7C(=O)C(NC(=O)OC)C7CCOCC7)[nH]c65)c4)ccc3c2[nH]1)C1CCOCC1 (some centres unmarked) | <10 | <10 |
| COC(=O)N[C@H](C(=O)N1[C@@H]2C[C@@H]2C[C@H]1c1nc(-c2ccc3cc(-c4ccc5cc(-c6c[nH]c([C@@H]7C[C@H]8C[C@H]8N7C(=O)[C@@H](NC(=O)OC)C(C)C)n6)ccc5c4)ccc3c2)c[nH]1)C(C)C | <10 | <10 |
| COC(=O)N[C@H](C(=O)N1[C@@H]2C[C@@H]2C[C@H]1c1nc2ccc(-c3ccc(-c4ccc5nc([C@@H]6C[C@H]7C[C@H]7N6C(=O)[C@@H](NC(=O)OC)C(C)C)[nH]c5c4)cc3)cc2[nH]1)C(C)C | >100 | >10 |
| CCC1(c2ccc(NC(=O)[C@@H]3C[C@H]4C[C@H]4N3C(=O)[C@@H](NC(=O)OC)C(C)C)cc2)CC2C3CC4CC(c5ccc(NC(=O)[C@@H]6C[C@H]7C[C@H]7N6C(=O)[C@@H](NC(=O)OC)C(C)C)cc5)(C3)CC2C4C1 (some centres unmarked) | <10 | <10 |
| COc1ccc(-c2ccc(-c3cnc([C@@H]4CCCN4C(=O)[C@@H](c4ccccc4)N(C)C)[nH]3)cc2)cc1-c1cnc([C@@H]2CCCN2C(=O)[C@@H](c2ccccc2)N(C)C)[nH]1 | <10 | <10 |
| COC(=O)N[C@H](C(=O)N1CCC[C@H]1c1ncc(-c2ccc(-c3ncc(-c4cnc([C@@H]5CCCN5C(=O)[C@@H](NC(=O)OC)C(C)C)[nH]4)cn3)cc2)[nH]1)C(C)C | >100 | >100 |
| COC(=O)N[C@H](C(=O)N1[C@H](c2ncc(-c3ccc(-c4ccc(-c5cnc([C@@H]6CCN(C)N6C(=O)[C@@H](NC(=O)OC)C(C)C)[nH]5)cc4)cc3)[nH]2)CCN1C)C(C)C | >100 | >100 |
| COC(=O)NC(C(=O)N1[C@@H](C)CC[C@H]1c1ncc(-c2ccc(-c3cnc(-c4cnc([C@@H]5CC[C@H](C)N5C(=O)[C@@H](NC(=O)OC)[C@H]5C[C@@H](C)O[C@@H](C)C5)[nH]4)c4cccn34)cc2)[nH]1)[C@H]1C[C@@H](C)O[C@@H](C)C1 (some centres unmarked) | >100 | >10 |
| COC(=O)N[C@H](C(=O)N1[C@@H](C)CC[C@H]1c1ncc(-c2ccc(-c3ccc4cc(-c5cnc([C@@H]6CC[C@H](C)N6C(=O)[C@@H](NC(=O)OC)C(C)C)[nH]5)ccc4c3)cc2)[nH]1)C(C)C | >100 | <10 |
